Source: patent publication US20040018501A1, “Methods and systems for analyzing complex biological systems” (priority 2001, published 2004)

System: Saccharomyces cerevisiae wild type strain BY4743
Assay: AF1 yeast metabolite analysis by GC-MS and LC-MS
Assay type: cell-based
Conditions: for Fold Change, NacetylLglutamate: detected metabolite NacetylLglutamate; for Fold Change, NacetylLornithine: detected metabolite NacetylLornithine; for Fold Change, nicotinic acid: detected metabolite nicotinic acid; for Fold Change, nopaline: detected metabolite nopaline; for Fold Change, oleic acid: detected metabolite oleic acid; for Fold Change, ornithine: detected metabolite ornithine; for Fold Change, phenylalanine: detected metabolite phenylalanine; for Fold Change, phosphoenolpyruvate: detected metabolite phosphoenolpyruvate; for Fold Change, pipecolic acid: detected metabolite pipecolic acid; for Fold Change, proline: detected metabolite proline; for Fold Change, pyridoxine: detected metabolite pyridoxine; for Fold Change, selenoDLmethionine: detected metabolite selenoDLmethionine; for Fold Change, serine: detected metabolite serine; for Fold Change, sugar-phosphate: detected metabolite sugar-phosphate; for Fold Change, tetradecanoic acid: detected metabolite tetradecanoic acid; for Fold Change, threonine/homoserin: detected metabolite threonine/homoserin; for Fold Change, thymine: detected metabolite thymine; for Fold Change, tryptophan: detected metabolite tryptophan; for Fold Change, tyrosine: detected metabolite tyrosine; for Fold Change, urocanic acid: detected metabolite urocanic acid; for Fold Change, valine: detected metabolite valine; for Fold Change, zeatin: detected metabolite zeatin

CC[C@@H]([C@H](C)O)n1ncn(-c2ccc(N3CCN(c4ccc(OC[C@@H]5CO[C@@](Cn6cncn6)(c6ccc(F)cc6F)C5)cc4)CC3)cc2)c1=O [Posaconazole]
Fold Change of alanine (GC): 1.035 | Fold Change of asparagine (GC): 0.145 | Fold Change of aspartic acid (GC): −0.071 | Fold Change of campesterol (GC): 0 | Fold Change of desmosterol (GC): 0 | Fold Change of disaccaride1 (GC): 0.04733 | Fold Change of disaccaride2 (GC): 0.313 | Fold Change of disaccaride3 (GC): 0.3407 | Fold Change of ergosterol (GC): 0.808 | Fold Change of fucosterol (GC): 6.722 | Fold Change of glutamine (GC): 0.6439 | Fold Change of glycanopyrose (GC): 1.594 | Fold Change of glycerol (GC): 0.1873 | Fold Change of glycine (GC): 0.08267 | Fold Change of hexadecanoic acid (GC): −0.01867 | Fold Change of iso citric acid (GC): 0.4 | Fold Change of isoleucine (GC): 0.1023 | Fold Change of lanosterol (GC): 7.464 | Fold Change of leucine (GC): 0.334 | Fold Change of lysine (GC): 0.1586 | Fold Change of malic acid (GC): 0.2942 | Fold Change of biotin (LC): 0 | Fold Change of folic acid (LC): 0 | Fold Change, NacetylDglucosamine (detected metabolite NacetylDglucosamine, platform nLC): 0 | Fold Change, NacetylLglucosamine (detected metabolite NacetylLglucosamine, platform pLC): 0 | Fold Change, NacetylLglutamate (platform nLC): −0.07165 | Fold Change, NacetylLglutamate (platform pLC): 0 | Fold Change, NacetylLornithine (platform nLC): 0 | Fold Change, NacetylLornithine (platform pLC): 0.1338 | Fold Change, TMS mevalonic acid lactone (detected metabolite TMS mevalonic acid lactone, platform GC): −0.3118 | Fold Change, mevalonic acid lactone (detected metabolite mevalonic acid lactone, platform GC): 0.5555 | Fold Change, mevalonic lactone (detected metabolite mevalonic lactone, platform pLC): −0.08368 | Fold Change, niacinamide (detected metabolite niacinamide, platform pLC): 0 | Fold Change, nicotinic acid (platform nLC): 1.421 | Fold Change, nicotinic acid (platform pLC): −0.8142 | Fold Change, nopaline (platform nLC): 0.7554 | Fold Change, nopaline (platform pLC): 0 | Fold Change, octadecanoic acid (detected metabolite octadecanoic acid, platform GC): 0.321 | Fold Change, oleic acid (platform GC): −0.5057 | Fold Change, oleic acid (platform nLC): 0.5606 | Fold Change, ornithine2 (detected metabolite ornithine2, platform GC): −0.1383 | Fold Change, ornithine3 (detected metabolite ornithine3, platform GC): 0.041 | Fold Change, ornithine (platform nLC): 2.314 | Fold Change, ornithine (platform pLC): 0.4314 | Fold Change, orotic acid (detected metabolite orotic acid, platform nLC): 0 | Fold Change, palmiteliadic acid (detected metabolite palmiteliadic acid, platform GC): −0.2453 | Fold Change, palmitic acid (detected metabolite palmitic acid, platform nLC): 0.1518 | Fold Change, phenylalanine (platform GC): 0.06069 | Fold Change, phenylalanine (platform nLC): −0.03702 | Fold Change, phenylalanine (platform pLC): −0.1585 | Fold Change, phenylpyruvic acid (detected metabolite phenylpyruvic acid, platform nLC): 0 | Fold Change, phosphate (detected metabolite phosphate, platform GC): −0.1833 | Fold Change, phosphoenolpyruvate (platform LC): 0 | Fold Change, phosphoenolpyruvate (platform nLC): 0 | Fold Change, pinitol (detected metabolite pinitol, platform nLC): 0 | Fold Change, pipecolic acid (platform nLC): 0.1806 | Fold Change, pipecolic acid (platform pLC): 0.3444 | Fold Change, progesterone (detected metabolite progesterone, platform pLC): 0 | Fold Change, proline (platform LC): 0.3157 | Fold Change, proline (platform nLC): 0.3147 | Fold Change, pyridoxine (platform nLC): −0.1015 | Fold Change, pyridoxine (platform pLC): −0.239 | Fold Change, pyrimidine (detected metabolite pyrimidine, platform GC): 0.159 | Fold Change, retinoic acid (detected metabolite retinoic acid, platform nLC): 0 | Fold Change, riboflavin (detected metabolite riboflavin, platform pLC): 0 | Fold Change, salicylic/HObenzoic (detected metabolite salicylic/HObenzoic, platform nLC): 0 | Fold Change, selenoDLmethionine (platform nLC): −0.6722 | Fold Change, selenoDLmethionine (platform pLC): −0.7083 | Fold Change, serine (platform nLC): 0.152 | Fold Change, serine (platform pLC): 0.2417 | Fold Change, shikimic acid (detected metabolite shikimic acid, platform nLC): 0 | Fold Change, sinapinic acid (detected metabolite sinapinic acid, platform nLC): 0 | Fold Change, sorbitol/mannitol (detected metabolite sorbitol/mannitol, platform nLC): 0.009121 | Fold Change, squalene (detected metabolite squalene, platform GC): 0.07431 | Fold Change, succinic (detected metabolite succinic, platform nLC): −0.06141 | Fold Change, sucrose (detected metabolite sucrose, platform nLC): 0.1847 | Fold Change, sugar-phosphate (platform nLC): −0.04543 | Fold Change, sugar-phosphate (platform pLC): 0 | Fold Change (detected metabolite sugar?, platform GC): 0.6923 | Fold Change, tetradecanoic acid (platform GC): −0.214 | Fold Change, tetradecanoic acid (platform nLC): 1.029 | Fold Change, thiamine (detected metabolite thiamine, platform pLC): 0 | Fold Change, threonine2 (detected metabolite threonine2, platform GC): 0.457 | Fold Change, threonine3 (detected metabolite threonine3, platform GC): 0.225 | Fold Change, threonine/homoserin (platform nLC): 0.04034 | Fold Change, threonine/homoserin (platform pLC): 0.1437 | Fold Change, thymine (platform nLC): 0 | Fold Change, thymine (platform pLC): 0 | Fold Change, tms glutamine3 (detected metabolite tms glutamine3, platform GC): 0.6709 | Fold Change, tms lysine4 (detected metabolite tms lysine4, platform GC): 0.05667 | Fold Change, tms tyrosine2 (detected metabolite tms tyrosine2, platform GC): 1.228 | Fold Change, tms tyrosine3 (detected metabolite tms tyrosine3, platform GC): 0.1911 | Fold Change, tryptophan (platform nLC): 4.676 | Fold Change, tryptophan (platform pLC): 0 | Fold Change, tyrosine (platform nLC): 0.0282 | Fold Change, tyrosine (platform pLC): 0.1008 | Fold Change, uracil (detected metabolite uracil, platform nLC): −0.2779 | Fold Change, uric acid (detected metabolite uric acid, platform pLC): 0 | Fold Change, uridine (detected metabolite uridine, platform nLC): 0.02855 | Fold Change, urocanic acid (platform nLC): 0 | Fold Change, urocanic acid (platform pLC): 0 | Fold Change, valine (platform GC): 0.345 | Fold Change, valine (platform nLC): 0.0195 | Fold Change, xanthosine(diH2O) (detected metabolite xanthosine(diH2O), platform pLC): 0 | Fold Change, xanthosineDiH2O (detected metabolite xanthosineDiH2O, platform nLC): 0 | Fold Change, zeatin (platform nLC): 0 | Fold Change, zeatin (platform pLC): 0 | Fold Change of 2-ketobutyric acid (nLC): −0.9992 | Fold Change of 2-ketoglutaric (nLC): 11.33 | Fold Change of 3-indolylacetonitri (nLC): −0.9998 | Fold Change of 4-methylcatechol (nLC): 0 | Fold Change of 4aminobutyrate/dimg (nLC): −0.008939 | Fold Change of 5hydroxyLtryptophan (nLC): 0 | Fold Change of 6-benzylaminopurine (nLC): 0 | Fold Change of DLaminoadipic acid (nLC): −0.9935 | Fold Change of abscisic acid (nLC): 0 | Fold Change of aconitic acid (nLC): 1.874 | Fold Change of adenine (nLC): 0 | Fold Change of adenosine (nLC): 128.3 | Fold Change of alanine (nLC): 0.1091 | Fold Change of allantoic acid (nLC): 0.3321 | Fold Change of allantoin (nLC): 5.97 | Fold Change of anthranilic acid (nLC): 0 | Fold Change of arginine (nLC): 0.1707 | Fold Change of argininosuccinate (nLC): 318.3 | Fold Change of asparagine (nLC): 0.006865 | Fold Change of aspartic (nLC): 0.305 | Fold Change of benzoic acid (nLC): 0 | Fold Change of biotin (nLC): −0.9992 | Fold Change of caffeic acid (nLC): −0.49 | Fold Change of catechol (nLC): 0 | Fold Change of cinnamic acid (nLC): 0 | Fold Change of citricanoic/itaconi (nLC): 0 | Fold Change of citrulline (nLC): 1160 | Fold Change of coumaric acid (nLC): 0 | Fold Change of cytidine (nLC): −0.9986 | Fold Change of cytosine (nLC): 0 | Fold Change of decanoic acid (nLC): 0.1263 | Fold Change of diaminopimelic acid (nLC): 0 | Fold Change of dihydrofolic acid (nLC): 0 | Fold Change of estrone (nLC): 0 | Fold Change of farnesol (nLC): 0 | Fold Change of folic acid (nLC): 0 | Fold Change of fumaric/3m2oxobutan (nLC): −0.9997 | Fold Change of gallic acid (nLC): 0.4414 | Fold Change of gibberellic (nLC): 0 | Fold Change of glucosamine6PO4 (nLC): −0.9951 | Fold Change of glutamic/acetylseri (nLC): 0.3222 | Fold Change of glutamine/lysine (nLC): 0.09814 | Fold Change of guanine (nLC): 0 | Fold Change of guanosine (nLC): −0.993 | Fold Change of histidine (nLC): 0 | Fold Change of homogentisic/uric (nLC): 0 | Fold Change of hydrocortisone (nLC): 0 | Fold Change of hypoxanthine (nLC): 0.1751 | Fold Change of indole3pyruvic acid (nLC): 0 | Fold Change of inostol/glucos/sorb (nLC): −0.493 | Fold Change of isocitric/citric/qu (nLC): 1.711 | Fold Change of jasmonic acid (nLC): 0 | Fold Change of kinetin (nLC): 0 | Fold Change of lactic acid (nLC): 0.5987 | Fold Change of lauric acid (nLC): 0.9833 | Fold Change of leucine/isoleucine/ (nLC): 0.03158 | Fold Change of luteolin (nLC): 0 | Fold Change of malic acid (nLC): 0.3101 | Fold Change of malonic acid (nLC): 0 | Fold Change of menthol* (nLC): 0.08121 | Fold Change of methionine (nLC): 0 | Fold Change of 4-aminobenzoic acid (pLC): 0 | Fold Change of 4-methylcatechol (pLC): 0 | Fold Change of 4ambutyrate/dimglyc (pLC): 31.37 | Fold Change of 5hydroxyLtryptophan (pLC): 0 | Fold Change of 6benzylaminopurine (pLC): 0 | Fold Change of DL-aminoadipic acid (pLC): 1.685 | Fold Change of abscisic acid (pLC): 0 | Fold Change of adenine (pLC): −0.0145 | Fold Change of adenosine (pLC): 0 | Fold Change of alanine/sarcosine (pLC): 0.1013 | Fold Change of allantoic acid (pLC): 0 | Fold Change of anthranilic acid (pLC): 0 | Fold Change of arginine (pLC): 0.03383 | Fold Change of argininosuccinate (pLC): 0 | Fold Change of asparagine (pLC): 0.4302 | Fold Change of aspartic acid (pLC): 0.3626 | Fold Change of caffeine (pLC): 0 | Fold Change of citric acid TME (pLC): 0 | Fold Change of citrulline (pLC): 0.1011 | Fold Change of cytidine (pLC): 0 | Fold Change of cytosine (pLC): 1135 | Fold Change of diaminopimelic acid (pLC): 0 | Fold Change of dihydrofolic acid (pLC): 0 | Fold Change of dipicolinic acid (pLC): 0 | Fold Change of glucosamine (pLC): 0 | Fold Change of glucosamine6PO4 (pLC): 0 | Fold Change of glutamate (pLC): 0.3769 | Fold Change of glutamine/lysine (pLC): 0.303 | Fold Change of glutathione (pLC): 0.0101 | Fold Change of guanosine (pLC): 0.04655 | Fold Change of histidine (pLC): 0 | Fold Change of hydrocortisone (pLC): 0 | Fold Change of hypoxanthine (pLC): 0.135 | Fold Change of itaconic acid dimes (pLC): 0 | Fold Change of kinetin (pLC): 0 | Fold Change of leucine/isoleucine/ (pLC): 0.04937 | Fold Change of mannitol (pLC): 0.3919 | Fold Change of methionine (pLC): −0.3997
